Results reported in patent publication US5409898A, “Compositions and methods for treating infections caused by organisms sensitive to β-lactam antibiotics” (priority 1994, dated 1995).
In brackets after ≈: the same amount, converted by molar mass.

Assays:
M009 = experiment: Determination of the minimum inhibitory concentration (MIC), M009; type: cell-based, Pseudomonas aeruginosa; settings: antibiotic resistant strain M009
Method: (§1) The MIC represents the lowest concentration of antimicrobial agent at which complete inhibition occurs. MIC's were determined by the microdilution plate dilution method using AMH (Manual of Clinical Microbiology, Fourth Edition, Lennette, E. H. Ed. in Chief, ASM. 1985. pps 972-977). At least three different determinations were performed with each antibiotic for each strain.
(§2) MIC's were determined by the microdilution plate dilution method using AMH (Manual of Clinical Microbiology, Fourth Edition, Lennette, E. H. Ed. in Chief, ASM. 1985. pps 972-977). At least three different determinations were performed with each antibiotic for each strain.

[1] = tested on: non K1 E. coli strain A645AP; experiment: In vivo protection of neutropenic mice challenged with E. coli A645AP; settings: neutropenic mice challenged with E. coli A645AP (5.0×10^4 organisms)
Method: (§3) Male CrL:CF1 mice were made neutropenic five days prior to bacterial challenge. Neutropenia was induced by subcutaneous injection of 250 mg/kg Cytoxan (cyclophosphamide). The mice were challenged with either 2×10^4 E. coli H16 (Table 4) or 5×10^4 A645AP by intraperitoneal injection. Mice were divided into four treatment groups: (1) PBS; (2) C-13 peptide analog (15 mg/kg); (3) cefepime (0.1 mg/kg); (4) a combination treatment of cefepime and C-13 peptide analog (0.1 mg/kg cefepime and 15 mg/kg C-13 peptide analog) that were combined prior to injection. All injections were made in PBS (0.2 ml) and were administered intramuscularly with each injection in separate legs, one and 3.5 hours after bacterial challenge. The survival of the mice was monitored for ten days and the results analyzed by the Fisher Exact test.
C-13 peptide analog G was also examined in neutropenic mice challenged with the non K1 E. coli strain A645AP (5.0×10^4 organisms). When mice were examined for survival after bacterial challenge the following results were obtained: in group 1, where only PBS was administered 3 out of 20 mice survived; in group 2, where only G was administered, 0 out of 15 survived; in group 3 where cefepime was administered 3 out of 20 survived; and in group 4, where both G and cefepime were administered 8 out of 15 survived.

A645AP (pBR322) = experiment: Determination of the minimum inhibitory concentration (MIC), A645AP (pBR322); type: cell-based; settings: Escherichia coli; antibiotic resistant strain A645AP (pBR322)
Method: as §1, §2

E. coli H16 [2] = experiment: In vivo protection of neutropenic mice from lethal E. coli H16 infection (magainin 2, C-13 peptide, cefepime, amikacin); settings: neutropenic mice, 2×10^4 E. coli H16 i.p.; two i.m. injections at 1 and 3.5 hr: 1 mg/mouse magainin 2, 0.1 mg/kg cefepime; at least 10 days
Method: The ability of magainin and cefepime combinations to protect mice from a lethal infection of E. coli was examined. Mice were made neutropenic by injection of Cytoxan and then challenged with E. coli. Mice were then divided into four different groups: (1) mice that were given no further treatment; (2) were given magainin 2 or C-13 peptide only; (3) were given cefepime only and (4) were given a combination of magainin 2 or C-13 peptide and cefepime. […] When amikacin, an aminoglycoside, was tested in similar experiments, no in vitro bactericidal activity or in vivo protection was found.
Mice were made neutropenic five days prior to bacterial challenge. Neutropenia was induced by subcutaneous injection of 250 mg/kg Cytoxan (cyclophosphamide). The mice were challenged with 2×10^4 E. coli H16. Challenge was by intraperitoneal injection. […] The survival of the mice was monitored for a period of at least 10 days

E. coli H16 [3] = experiment: In vivo protection of neutropenic mice from systemic E. coli H16 infection (C-13 peptide analogs)
From the text: The ability of C-13 peptide analogs and cefepime combinations to protect mice from a lethal infection of E. coil was examined. Mice were made neutropenic by an injection of cyclophosphamide and then challenged with E. coli. Mice were then divided into four groups: (1) mice that were given PBS; (2) were given C-13 peptide analogs only; (3) were given cefepime only; and (4) were given a combination of C-13 peptide analogs and cefepime.
as §3

E. coli ATCC 25922 [4] = experiment: Bactericidal assay in GVB++ buffer (magainin 2 / cefepime); type: cell-based, Escherichia coli; settings: cefepime alone (1/4 MIC)
Method: FIG. 1 illustrates magainin 2 killing of untreated and cefepime altered E. coli in buffer. […] Cells were diluted as described in Section 6.1.5 and added to tubes containing GVB^++ buffer, with or without cefepime, and varying concentrations of magainin 2 peptide (indicated on the X axis). […] After 180 minutes at 37° C., bacterial survival was determined by measuring the number of colony forming units (cfu) in each tube. Bacterial counts were determined in triplicate. For each magainin concentration: Log Kill=log10 cfu no magainin-log10 cfu containing magainin.
The total reaction mixture was 0.25 ml.

E. coli ATCC 25922 [5] = experiment: Serum bactericidal assay in 40% pooled normal human serum (magainin 2 with antibiotics); type: cell-based, Escherichia coli; settings: 1/32, 1/16, 1/8 MIC antibiotic; 200 μg/ml magainin 2; 40% pooled normal human serum
[6] = neutropenic mice, 2×10^4 E. coli H16 i.p., peptide 15 mg/kg, cefepime 0.1 mg/kg i.m. at one and 3.5 hours, ten days

Structure (SMILES): CO/N=C(\C(=O)N[C@@H]1C(=O)N2C(C(=O)[O-])=C(C[N+]3(C)CCCC3)CS[C@H]12)c1csc(N)n1 [cefepime]
- MIC (M009): 64 ug/MI
- mice survived (out of total) [1]: 3 out of 20
- MIC (A645AP (pBR322)): 1 µg/mL (≈ 2.08 µM)
- mice survived (out of total) (E. coli H16 [2]): 1 out of 20
- protection from systemic E. coli H16 infection (E. coli H16 [3]; Fisher Exact test): failed to provide a significant level of protection
- % Survival (E. coli H16 [3]; [6]): 12%
- Number--Survived/Total (E. coli H16 [3]; [6]): 3/25
- log10 kill (E. coli ATCC 25922 [4]): Less than 0.3 log10
- synergy of antibiotic with magainin 2 (E. coli ATCC 25922 [5]): synergistic
